Source: patent US9139812B2, “CD49F promoting proliferation, multipotency and reprogramming of adult stem cells through PI3K/AKT/GSK3 pathway” (KANG STEM HOLDINGS CO., LTD, priority 2010, dated 2015)
“Also recorded” adds a separate entry of the source.

Legend:
Assay type in all cases: cell-based, human
adult stem cell spheres = assay: Formation of adult stem cell (MSC) spheres with GSK3 or PI3K inhibitor; conditions: after 7 days; BIO 0.2 μM to 0.5 μM; LY294002 30 μM to 50 μM
Experimental: To form adult stem cell spheres with preventing the adhesion of cells to the bottom of plastic container, 100 mm culture plate coated with 1% agarose (Nunc, Rochester, N.Y.) was used, and 1.5×10^5 adult stem cells were incubated in the growth medium as described in Preparation 1. A total of 15,000 cells were seeded per 1 ml of the medium, and adult stem cell spheres were incubated for one week. To prevent cell loss the culture solution was partially replaced only two times per week. After 7 days, adult stem cell spheres were collected by means of 40 μm pore cell strainer. Adult stem cell spheres as collected were washed with PBS, and gently centrifuged (800 rpm/5 min) for supplementary experiments.
To identify the influence of GSK3 and PI3K signal transduction on sphere formation the inhibitory experiment was practiced. After treatment with BIO (Sigma-Aldrich) as GSK3 inhibitor at the concentration of 0 μM, 0.2 μM, or 0.5 μM, or with […] (Calbiochem, La Jolla, Calif.) as PI3K inhibitor at the concentration of 0 μM, 10 μM, 30 μM, or 50 μM the formation of adult stem cell spheres was observed. The number of adult stem cell spheres was counted after 7 days from culture.

[1] = tested on: adult stem cells overexpressing CD49f; assay: Sphere formation assay in CD49f-overexpressing adult stem cells
Experimental: (§1) Cells were seeded onto 24-well plate, and then the optical density was measured after 24 hour and 48 hours (*, P<0.05; **, P<0.01). FIG. 9(B) is the result of measuring a size of spheres in the presence or absence of CD49f, LY294002, BIO (*, P<0.05; **, P<0.01). FIG. 9(C) is the result of Western blot analysis for PI3K/AKT/GSK3β. CD49f expression vector was transduced into cells, which were than treated with LY294002 and BIO. Using phospho-specific antibodies for respective proteins the phosphorylation level of protein kinases was identified via Western blotting. 20 μg of protein lysate was loaded onto each well.
(§2) In order to further confirm whether CD49f genetic expression is dependent on the activation of PI3K/AKT/GSK3 pathway, adult stem cells overexpressing CD49f were treated with LY294002 or BIO for 24 hours and 48 hours.

[2] = tested on: adult stem cells overexpressing CD49f; assay: MTT cell proliferation assay in CD49f-overexpressing adult stem cells; conditions: 24 and 48 hours
Experimental: as §2
The proliferation potential of cells was measured by MTT assay analysis based on the ability of living cells to convert tetrazolium salt into purple formazan. Adult stem cells were transduced with either control vector or CD49f expression vector. After 24 hours from transduction, cells were seeded onto 24-well plate, and incubated in medium comprising LY294002 and BIO. After culture for 24 hours and 48 hours, […] of MTT stock solution (5 mg/ml, Sigma) was added to each well, and then further incubated at 37° C. for 4 hours. After removing the supernatant, […] of DMSO was added to each well so that insoluble purple formazan crystals can be dissolved […]. Then, cells were transferred to 96-well microplate and then the absorbance was measured using EL800 microplate reader (BIO-TEK Instruments, Winooski, Vt., U.S.A.) at wavelength of 540 nm. All of measurements were repeated three times.

PI3K/AKT/GSK3β [3] = assay: Western blot for PI3K/AKT/GSK3β in CD49f-overexpressing adult stem cells
Experimental: as §1
Western blot analysis for PI3K, AKT, and GSK3β was conducted according to the reference (Park et al., 2009). Adult stem cells incubated as monolayer or spheres were crushed in 50 mM Tris-HCl buffer comprising 1% Triton X-100 to which 1 mM phenylmethylsulfonyl fluoride, 1 mM aprotinin, 1 mM leupeptin, 1 mM antipain, and 0.1 mM sodium orthovanadate were added, 137 mM NaCl, 2 mM EDTA, and 0.1% SDS. The content of protein was determined using DC assay kit (Bio-Rad, USA), and then SDS-PAGE was conducted by loading a given amount of protein on 0-15% polyacrylamide gel. Then protein was transferred to nitrocellulose membrane at 50 V, 350 mA for 5 hours. […]

PI3K/AKT/GSK3β [4] = assay: Western blot for PI3K, AKT, GSK3β phosphorylation in MSC spheres; conditions: spheres treated with 0.2 μM BIO, compared to monolayer-incubated adult stem cells
Experimental: FIG. 6(A) is the result of Western blot analysis conducted after 7 days from sphere culture, wherein MSC spheres were collected by means of 40 μm strainer and then washed two times, and the phosphorylation levels of PI3K and its sequential downstream effectors, AKT and GSK3β were analyzed in monolayer cells, spheres, spheres treated with 0.2 μM BIO, and spheres treated with 30 μM LY294002.
Western blot analysis for PI3K, AKT, and GSK3β was conducted according to the reference (Park et al., 2009). Adult stem cells incubated as monolayer or spheres were crushed in 50 mM Tris-HCl buffer comprising 1% Triton X-100 to which 1 mM phenylmethylsulfonyl fluoride, 1 mM aprotinin, 1 mM leupeptin, 1 mM antipain, and 0.1 mM sodium orthovanadate were added, 137 mM NaCl, 2 mM EDTA, and 0.1% SDS. The content of protein was determined using DC assay kit (Bio-Rad, USA), and then SDS-PAGE was conducted by loading a given amount of protein on 0-15% polyacrylamide gel. Then protein was transferred to nitrocellulose membrane at 50 V, 350 mA for 5 hours. All of antibodies were used according to the manufacturer's instructions, and the protein bands were identified using enhanced chemiluminescence detection kit (Amersham Pharmacia Biotech, Buckinghamshire, UK).

adult stem cells = assay: Survival of adult stem cells treated with BIO; conditions: BIO treatment
CD49f-overexpressed MSCs = assay: Osteogenic differentiation of CD49f-overexpressed adult stem cells (Alizarin Red S, RT-PCR)
Experimental: (§3) Osteogenesis was confirmed through Alizarin Red S staining.
The monolayer-incubated cells (Comparative Example 1) and sphere-derived cells (Example 1) were incubated in DMEM containing 5% FBS, 50 μM L-ascorbate-2-phosphate, 0.1 μM dexamethasone and […] glycerolphosphate to induce differentiation into bone tissue. The cells were stained with Alizarin Red dye specific to calcium, and then the dye was extracted by treating with 100 mM cetylpyridinium chloride (Sigma-Aldrich) for one hour and used for quantitative analysis. The emission of solubilized Alizarin Red S was measured by means of spectrophotometer at 570 nm.
(§4) Subsequently, whether in differentiation of adult stem cells into osteocytes and adipocytes CD49f expression can be regulated by PI3K/AKT/GSK3 pathway was identified. CD49f-overexpressed adult stem cells were treated with LY294002 and BIO, and then incubated in osteocyte and adipocyte media, respectively, to induce differentiation into osteogenic and adipogenic lineages.

[5] = tested on: CD49f-overexpressed cells; assay: Adipogenic differentiation of CD49f-overexpressed adult stem cells (Oil Red O, RT-PCR)
Experimental: as §3
The cell culture of monolayer-incubated cells (Comparative Example 1) and sphere-derived cells (Example 1) was conducted using DMEM containing 5% FBS, 1 μM dexamethasone, 10 μM insulin, 200 μM indomethacin, and 0.5 mM isobutylmethylxanthine to induce differentiation into adipose tissue.
To determine the differentiation degree from fat accumulation present in cells, incubated cells were stained with Oil Red 0, and then Oil Red ° penetrated into cells was extracted with 100% isopropyl alcohol, and quantified with ELISA plate reader (EL800, Bio-Tek Instruments, USA) at OD 500. In addition, using RT-PCR the expression of C/EBP β, AP2, and PPARγ as adipose tissue-specific genes was examined.
as §4

## O=C1Nc2cc(Br)ccc2/C1=C1/Nc2ccccc2/C1=N\O [BIO]
Adult stem cell spheres
  number of adult stem cell spheres formed: significantly increased
  size of adult stem cell spheres: significantly increased
[1]
  number of adult stem cell spheres / sphere formation: increased
[2]
  growth rate / cell proliferation (MTT): higher
PI3K/AKT/GSK3β [3]
  AKT phosphorylation: induced phosphorylation
  GSK3 phosphorylation: induced phosphorylation
PI3K/AKT/GSK3β [4]
  phospho-PI3K and phospho-AKT: increased
Adult stem cells
  survival potential of adult stem cells: does not adversely affect
CD49f-overexpressed MSCs; BIO treatment
  propensity of adult stem cells to differentiate into osteocytes: increases
CD49f-overexpressed MSCs; CD49f-overexpressed MSCs, osteocyte induction
  mineral accumulation (Alizarin Red S staining): further increased
CD49f-overexpressed MSCs; RT-PCR, CD49f-overexpressed adult stem cells
  mRNA levels of osteocyte-specific markers (BGLAP, VDR, MSX2, OSTEOCALCIN, RUNX2): further increased; also recorded: upregulated
[5]; RT-PCR
  mRNA levels of adipocyte transcription factors (C/EBP β, aP2, PPARγ, LEPTIN): inhibited; also recorded: significantly reduced
[5]; compared to untreated control group
  lipid accumulation (Oil Red O staining): inhibited
